In brackets after ≈: the same amount, converted by molar mass. Residues, ends and D or L forms follow the SMILES beside them. *: point of attachment. Palmitoyl = CCCCCCCCCCCCCCCC(=O)*
Tests used:
[1] = Aqueous solubility of Compound I-1 in the presence of excipients; assay type: physicochemical; conditions: approximate solubility by visual observation
[2] = Solubility of amorphous, Form A and Form E of Compound I-1 in water (shaken at 25° C., HPLC); assay type: physicochemical; conditions: for Final pH: mother liquor; for XRPD pattern (wet): residue of the suspension in water
Experimental: The solubility of amorphous, Form A or E of Compound I-1 in water was further studied. Specifically, about 250 mg Compound I-1 in amorphous, Forms A and E were each suspended in a 2 mL HPLC vial with 0.9 mL of water. Each suspension was then shaken at 25° C. under 1000 rpm. The suspensions were analyzed at 1 h and 24 h. In particular, at either the 1 h or 24 h time point, the slurries were centrifuged and analyzed by HPLC. The pH values of the mother liquors were measured, and the residues were characterized by XRPD.

[3] = Stabilities of amorphous Compound I-1 (ICH guideline, XRPD); assay type: physicochemical; conditions: amorphous; 25±2° C./60±5% RH and 40±2° C./75±5% RH; ICH guideline
Experimental: Stabilities of amorphous Compound I-1 were also conducted according to ICH guideline.

[4] = tested on: DSS induced colitis animal model; experiment: DSS induced colitis animal model; assay type: in vivo; conditions: formulations containing Compound I-1
Description: The compound of Formula I (e.g., Formula I-B or I-C, or any one of Compounds I-1 to I-10) described herein is useful for treating various diseases or disorders discussed herein. […] In addition, it was shown that effective concentration of the acid compounds can be retained in a targeted tissue (e.g., small intestinal tissues, large intestinal tissues, appendix tissues) for a sufficient time. […] Those skilled in the art would expect that the salts of Compound I-1-Acid, such as Compound I-1, be similarly efficacious.

[5] = Aqueous solubility of Compound I-1 in the presence of excipients; assay type: physicochemical; conditions: 25° C.
Experimental: Specifically, about 50 mg of Compound I-1 was weighed into a 1.5-mL HPLC vial, and 0.2 mL of different media was then added to each vial. The mixtures were shaken at 25° C. under 700 rpm. After 24 hours of shaking, the slurries were centrifuged twice and analyzed. The supernatant was analyzed by HPLC.

[6] = Physical stability of Compound I-1 in meglumine solutions; assay type: physicochemical; conditions: for Appearance: precipitation after (storage time) / Appearance: no precipitation until (storage time): vehicle Meglumine, 25° C.
Experimental: In contrast, an aqueous formulation with a concentration of Compound I-1 of 200 mg/mL, without meglumine, started forming precipitates after storing 1 day at 25° C.

[7] = Water solubility of Compound I-1-Acid (further investigation); assay type: physicochemical
[8] = tested on: inflammatory bowel diseases, multiple sclerosis, and septicemia; conditions: shown in U.S. application Ser. No. 15/205,853; cited from earlier work
[9] = Approximate solubility of Compound I-1-Acid in different solvents (manual dilution, visual observation); assay type: physicochemical
Experimental: The solubility test was conducted by manual dilution combined with visual observation. As shown below, Compound I-1-Acid has poor solubility (<1 mg/mL) in most organic solvents and water (Table 1).

[10] = Approximate solubility of Compound I-2 (amorphous) at room temperature; assay type: physicochemical
Experimental: The solubility of Compound I-2 (amorphous) at room temperature was tested using a method similar to those described in Examples 4 and 5. The solubility test results are described in Table 6.

[11] = Kinetic solubility of potassium salt Compound I-2 (further research); assay type: physicochemical; conditions: water; 25° C.
[12] = Hygroscopicity by Dynamic Vapor Sorption (DVS); assay type: physicochemical
Experimental: A polymorph screening study on Compound I-1-Acid was also carried out, which identified Form 1. […] About 0.25% weight loss from 25° C. to 120° C. and about 0.42% weight loss from 120° C. to 150° C.
Compound I-2 can have different crystalline forms. Two different polymorphs, Forms A2 and B2 were identified. Form A2 can be prepared as follows. Specifically, the white solid of Compound I-2 obtained above was dissolved in 30 mL THF:water (95:5, v/v). […] The suspension was then allowed to be stirred at room temperature overnight. After which, the solid was filtered, washed with THF:water:MTBE=7.5:1:53 (25 mL*3) to remove excess KOH, and then dried under vacuum at 25° C. overnight to provide Form A2.

[13] = Crystalline stability of Form A2 of Compound I-2 on storage; assay type: physicochemical; conditions: 25° C./92.5% RH, 40° C./75% RH, 60° C.; 25 days
[14] = water, 25° C., time point 1 hour
[15] = water, 25° C., time point 24 hours

CCCCCCCCCCCCCCCC(=O)N1CCC[C@H]1C(=O)N1CCC[C@H]1C(=O)NCC(=O)N[C@@H](Cc1ccc(O)cc1)C(=O)[O-].[Na+] [Compound I-1, sodium palmitoyl-L-prolyl-L-prolylglycyl-L-tyrosinate] (Palmitoyl-PPGY-OH)
solubility ([1]; water with HPMC E3 5% (w/v)): < 250000 µg/mL | solubility ([1]; water with HPβCD 5% (w/v)): < 250000 µg/mL | solubility ([1]; water with Meglumine 2% (w/v)): > 250000 µg/mL | solubility ([1]; water with Meglumine 5% (w/v)): > 250000 µg/mL | solubility ([1]; water with Meglumine:Cremophor RH 40 (1:1, w/w) 10% (w/v)): > 250000 µg/mL | solubility kinetic ([2]; water, 25° C.): ~200000 µg/mL | stable for (storage time) [3]: ≥ 6 months | total colitis scores [4]: statistically significant improvement | solubility at 24 h ([5]; water with Cremophor RH 40 1% (w/v), HPLC): 231000 µg/mL | solubility at 24 h ([5]; water with Cremophor RH 40 10% (w/v), HPLC): 209000 µg/mL | solubility at 24 h ([5]; water with Meglumine 1% (w/v), HPLC): 190000 µg/mL | solubility at 24 h ([5]; water with Meglumine 10% (w/v)): > 270000 µg/mL | solubility at 24 h ([5]; water with TWEEN 80 1% (w/v), HPLC): 215000 µg/mL | solubility at 24 h ([5]; water with TWEEN 80 10% (w/v), HPLC): 198000 µg/mL | physical stability of solution ([6]; 200 mg/mL in water with 3%, 4%, or 5% meglumine, stored at 25° C., 13 days): good physical stability | physical stability of solution ([6]; stored at 5° C., 5 mg/mL solution formulation with meglumine (2-5%)): not physically stable | Appearance: precipitation after (storage time) ([6]; 2%, 200 mg/mL): Precipitation after 2 days | Appearance: precipitation after (storage time) ([6]; 2%, 250 mg/mL): Precipitation after 1 day | Appearance: no precipitation until (storage time) ([6]; 3%, 200 mg/mL): ≥ 3 weeks | Appearance: no precipitation until (storage time) ([6]; 4%, 200 mg/mL): ≥ 3 weeks | Appearance: no precipitation until (storage time) ([6]; 5%, 200 mg/mL): ≥ 3 weeks | Appearance: precipitation after (storage time) ([6]; 5%, 250 mg/mL): Precipitation after 5 days | Appearance: precipitation after (storage time) ([6]; 5%, 300 mg/mL): Precipitation after 3 days

CCCCCCCCCCCCCCCC(=O)N1CCC[C@H]1C(=O)N1CCC[C@H]1C(=O)NCC(=O)N[C@@H](Cc1ccc(O)cc1)C(=O)O [Compound I-1-Acid] (Palmitoyl-PPGY-OH)
solubility [7]: < 2 µg/mL | treating inflammatory bowel diseases, multiple sclerosis, and septicemia [8]: effective | solubility ([9]; 1,4-Dioxane, room temperature): < 1000 µg/mL | solubility ([9]; 1-butanol, room temperature): < 1000 µg/mL | solubility ([9]; 2-Methyl Tetrahydrofuran, room temperature): < 1000 µg/mL | solubility ([9]; ACN—H2O (1:1), room temperature): < 1000 µg/mL | solubility ([9]; Acetone-H2O (1:2), room temperature): < 1000 µg/mL | solubility ([9]; Acetone, room temperature): < 1000 µg/mL | solubility ([9]; Acetonitrile, room temperature): < 1000 µg/mL | solubility ([9]; Cyclohexane, room temperature): < 1000 µg/mL | solubility ([9]; EtOH—H2O (1:1), room temperature): < 1000 µg/mL | solubility ([9]; EtOH—H2O (3:1), room temperature): < 1000 µg/mL | solubility ([9]; Ethanol, room temperature): < 1000 µg/mL | solubility ([9]; Ethyl acetate, room temperature): < 1000 µg/mL | solubility ([9]; Heptane, room temperature): < 1000 µg/mL | solubility ([9]; Isopropyl acetate, room temperature): < 1000 µg/mL | solubility ([9]; Isopropyl alcohol, room temperature): < 1000 µg/mL | solubility ([9]; MeOH—H2O (1:1), room temperature): < 1000 µg/mL | solubility ([9]; MeOH—H2O (3:1), room temperature): < 1000 µg/mL | solubility ([9]; Methyl ethyl ketone, room temperature): < 1000 µg/mL | solubility ([9]; Methyl isobutyl ketone, room temperature): < 1000 µg/mL | solubility ([9]; Methyl t-butyl ether, room temperature): < 1000 µg/mL | solubility ([9]; N-methyl pyrrolidone, room temperature): 1000 to 5000 µg/mL (≈ 1490 to 7450 µM) | solubility ([9]; Tetrahydrofuran, room temperature): < 1000 µg/mL | solubility ([9]; Toluene, room temperature): < 1000 µg/mL | solubility ([9]; Water, room temperature): < 1000 µg/mL | solubility ([9]; most organic solvents and water, ambient laboratory temperature): < 1000 µg/mL

CCCCCCCCCCCCCCCC(=O)N1CCC[C@H]1C(=O)N1CCC[C@H]1C(=O)NCC(=O)N[C@@H](Cc1ccc(O)cc1)C(=O)[O-].[K+] [Compound I-2 (amorphous)] (Palmitoyl-PPGY-OH)
solubility ([10]; 1,4-Dioxane): < 1000 µg/mL | solubility ([10]; 1-butanol): 1000 to 5000 µg/mL | solubility ([10]; 2-Methyl Tetrahydrofuran): < 1000 µg/mL | solubility ([10]; Acetone): < 1000 µg/mL | solubility ([10]; Acetone: H2O (97:3)): < 1000 µg/mL | solubility ([10]; Acetonitrile): < 1000 µg/mL | solubility ([10]; Acetonitrile:H2O (95:5)): < 1000 µg/mL | solubility ([10]; Cyclohexane): < 1000 µg/mL | solubility ([10]; DMF): 50000 to 100000 µg/mL | solubility ([10]; DMSO): 50000 to 100000 µg/mL | solubility ([10]; Ethanol): 50000 to 100000 µg/mL | solubility ([10]; Ethanol:H2O (90:10)): 25000 to 50000 µg/mL | solubility ([10]; Ethanol:H2O (95:5)): 25000 to 50000 µg/mL | solubility ([10]; Ethyl acetate): < 1000 µg/mL | solubility ([10]; Heptane): < 1000 µg/mL | solubility ([10]; Isopropyl acetate): < 1000 µg/mL | solubility ([10]; Isopropyl alcohol): 1000 to 5000 µg/mL | solubility ([10]; Methanol): > 100000 µg/mL | solubility ([10]; Methanol:H2O (90:10)): > 100000 µg/mL | solubility ([10]; Methanol:H2O (95:5)): > 100000 µg/mL | solubility ([10]; Methyl ethyl ketone): < 1000 µg/mL | solubility ([10]; Methyl isobutyl ketone): < 1000 µg/mL | solubility ([10]; Methyl t-butyl ether): < 1000 µg/mL | solubility ([10]; N-methyl pyrrolidone): 50000 to 100000 µg/mL | solubility ([10]; Tetrahydrofuran): < 1000 µg/mL | solubility ([10]; Tetrahydrofuran:H2O (95:5)): 50000 to 100000 µg/mL | solubility ([10]; Toluene): < 1000 µg/mL | solubility ([10]; Water): > 100000 µg/mL

CCCCCCCCCCCCCCCC(=O)N1CCC[C@H]1C(=O)N1CCC[C@H]1C(=O)NCC(=O)N[C@@H](Cc1ccc(O)cc1)C(=O)[O-].[K+] [Compound I-2] (Palmitoyl-PPGY-OH)
solubility kinetic [11]: 166000 to 200000 µg/mL

CCCCCCCCCCCCCCCC(=O)N1CCC[C@H]1C(=O)N1CCC[C@H]1C(=O)NCC(=O)N[C@@H](Cc1ccc(O)cc1)C(=O)[O-].[K+] [Form A2] (Palmitoyl-PPGY-OH)
hygroscopicity (DVS) [12]: hygroscopic | water absorption (DVS isotherm) [12]: about 8% | crystalline stability on storage [13]: stable

CCCCCCCCCCCCCCCC(=O)N1CCC[C@H]1C(=O)N1CCC[C@H]1C(=O)NCC(=O)N[C@@H](Cc1ccc(O)cc1)C(=O)[O-].[Na+] [Form A] (Palmitoyl-PPGY-OH)
Final pH [2, 14]: 8.91 | Final pH [2, 15]: 8.70 | XRPD pattern (wet) ([2]; 25° C., time point 1 hour): A + D | Solubility at 25° C. ([2]; water, time point 24 hours): 208600 µg/mL

CCCCCCCCCCCCCCCC(=O)N1CCC[C@H]1C(=O)N1CCC[C@H]1C(=O)NCC(=O)N[C@@H](Cc1ccc(O)cc1)C(=O)[O-].[Na+] [Form E] (Palmitoyl-PPGY-OH)
Final pH [2, 14]: 9.08 | Final pH [2, 15]: 8.70 | XRPD pattern (wet) ([2]; 25° C., time point 1 hour): A + D | Solubility at 25° C. ([2]; water, time point 24 hours): 199400 µg/mL
